# Source: US20240228457A1, “AKT3 MODULATORS” (Georgiamune Inc., priority 2020, published 2024)
# Target: T1, Akt3 (Homo sapiens, UniProt Q9Y243)
# T1 construct: endogenous in cells; host or cells: human CD4+/CD45RA+/CD25- naive T cells under iTreg induction conditions
# Experiment: Akt3 inhibition activity of selected compounds
# Format: cell-based
# T1 sequence (Q9Y243 whole entry): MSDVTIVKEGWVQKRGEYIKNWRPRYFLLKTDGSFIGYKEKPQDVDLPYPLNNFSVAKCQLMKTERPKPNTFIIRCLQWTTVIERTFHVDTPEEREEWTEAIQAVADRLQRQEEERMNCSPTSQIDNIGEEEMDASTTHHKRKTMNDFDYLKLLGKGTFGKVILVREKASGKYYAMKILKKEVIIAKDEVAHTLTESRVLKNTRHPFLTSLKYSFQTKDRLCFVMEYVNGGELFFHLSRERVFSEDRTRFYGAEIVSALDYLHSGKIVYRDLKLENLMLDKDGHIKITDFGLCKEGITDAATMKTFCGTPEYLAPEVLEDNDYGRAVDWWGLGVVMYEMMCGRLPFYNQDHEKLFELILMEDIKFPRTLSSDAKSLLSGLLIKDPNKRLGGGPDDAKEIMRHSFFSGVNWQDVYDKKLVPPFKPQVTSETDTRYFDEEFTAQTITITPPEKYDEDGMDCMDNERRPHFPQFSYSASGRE
row,SMILES,IC50 [nM]
1,"O=C(Nc1ccc(Nc2ccncc2)cc1)c1cccc(Nc2ccnc3ccc(F)cc23)c1 [Compound 3, 3-((6-fluoroquinolin-4-yl)amino)-N-(4-(pyridin-4-ylamino)phenyl)benzamide]",< 2000
2,"Cc1cccc2nccc(Nc3cccc(C(=O)Nc4ccc(Nc5ccncc5)cc4)c3)c12 [Compound 18, 3-((5-methylquinolin-4-yl)amino)-N-(4-(pyridin-4-ylamino)phenyl)benzamide]",< 2000
3,"Nc1cc(Nc2ccc(C(=O)Nc3cccc(Nc4ccncc4)c3)cc2)ccn1 [Compound 19, 4-(2-aminopyridin-4-ylamino)-N-(3-(pyridin-4-ylamino)phenyl)benzamide]",< 5000
4,"Cc1cc(Nc2ccc(C(=O)Nc3cccc(Nc4ccncc4)c3)cc2)cc(N)n1 [Compound 20, 4-(2-amino-6-methylpyridin-4-ylamino)-N-(3-(pyridin-4-ylamino)phenyl)benzamide]",< 5000
5,"Cc1c(Nc2ccc(C(=O)Nc3cccc(Nc4ccncc4)c3)cc2)ccnc1N [Compound 21, 4-(2-amino-3-methylpyridin-4-ylamino)-N-(3-(pyridin-4-ylamino)phenyl)benzamide]",< 2000

# Target: T1, Akt3
# Experiment: Akt3 activation activity of selected compounds
# Format: cell-based
row,SMILES,EC50 [µM]
1,"N#Cc1ccc2nccc(Nc3cccc(C(=O)Nc4ccc(Nc5ccncc5)cc4)c3)c2c1 [Compound 2, 3-((6-cyanoquinolin-4-yl)amino)-N-(4-(pyridin-4-ylamino)phenyl)benzamide]",< 5
